Values quoted from earlier work as cited in US20090312688A1, “IONTOPHORESIS DRUG DELIVERY FORMULATION PROVIDING ACCEPTABLE SENSATION AND DERMAL ANESTHESIA” (Vyteris, Inc., priority 2005, published 2009).

Conditions: iontophoresis in vitro across human skin

| cumulative delivery relative to lidocaine | SMILES |
| --- | --- |
| slightly greater delivery | CCCN(CC)C(CC)C(=O)Nc1c(C)cccc1C (stereo not drawn) [etidocaine] |
| slightly greater delivery | CCCNC(C)C(=O)Nc1ccccc1C (stereo not drawn) [prilocaine] |
| slightly greater delivery | CCN(CC)CCOC(=O)c1ccc(N)cc1 [procaine] |
